Measurements published in patent US9464291B2, “Methods and compositions for the treatment of cancer” (University of South Alabama, priority 2012, dated 2016).
“Also recorded” adds a separate entry of the source.

Columns and labels:
OPN [1] = test: OPN mRNA by qRT-PCR in metastatic melanoma cell lines; format: cell-based, human; conditions: MDA-MB-435
Protocol: This medium was replaced with fresh cyclopamine-containing medium after 12 h. […] RNA was assessed by real-time RT-PCR for OPN transcript levels.
Quantitative RT-PCR (qRT-PCR)-cDNA was generated using High Capacity Reverse Transcriptase Kit (Applied Biosystems, Foster City, Calif.). Real time PCR was performed using a Bio-Rad iQ5 Real-Time Detection system (Bio-Rad). All reactions were done as three independent replicates. All assays were done using the TaqMan Gene Expression Assays from Applied Biosystems. OPN (SPP1: Hs 00959010_m1) transcript levels were normalized to glyceraldehyde-3-phosphate dehydrogenase (Hs 99999905_m1) levels (δCT), which was used to calculate changes in OPN expression (2^−δδCT). […] GLI1 and SHH (Hs 00179843_m1) expressions were also similarly assessed with glyceraldehyde-3-phosphate dehydrogenase as an endogenous control. To analyze the knockdown effectiveness, “scrambled transfectants” of MDA-MB-435 was set as calibrator.

OPN [2] = test: OPN regulation and GLI1 localisation in osteoblastic cells hFOB and MC3T3-E1; format: cell-based
Protocol: The role of the Hedgehog pathway in regulating the expression of OPN in the two osteoblastic cell lines, hFOB and MC3T3-E1 was assessed.
Quantitative RT-PCR (qRT-PCR)-cDNA was generated using High Capacity Reverse Transcriptase Kit (Applied Biosystems, Foster City, Calif.). Real time PCR was performed using a BioRad iQ5 Real-Time Detection system (Bio-Rad, Hercules, Calif.). All reactions were done in triplicate. OPN transcript levels were normalized to GAPDH levels (dCT) which was used to calculate changes in OPN expression (2-ddCT). […] The primers used included Spp1 (OPN) (Mm 00436767_m1); Bglap (osteocalcin) (Mm 01741771_g1); IBSP (Mm 00492555_m1); PTHrP (Mm 00433057_m1); RANKL (Mm 00441906_m1); GAPDH (Mm 99999915_g1).

RAW264.7 cells = test: Osteoclast differentiation, TRAP assay, RAW264.7; format: cell-based, murine
Protocol: Cell lines—Human metastatic breast cancer cells, MDA-MB-231, were cultured in Dulbecco's Modified Eagle's Medium (DMEM/F12; Invitrogen, Carlsbad, Calif.), supplemented with 2 mM L-glutamine, 1 mM sodium pyruvate, 0.02 mM non-essential amino acids, 5% fetal bovine serum, FBS (Atlanta Biologicals, Norcross, Ga.), without antibiotics or antimycotics (cDME/F12). SUM1315 and SUM159 cells (DiMeo, T. A., et al. (2009) Cancer Res 69, 5364-5373) (Asterand, Detroit, Mich.) were cultured in DMEM/F12 supplemented with […] insulin, 5% FBS (Atlanta Biologicals) and either 10 ng/ml EGF or 1 ng/ml hydrocortisone, without antibiotics or antimycotics. The SUM1315 cells are derived from a metastasis in a patient with infiltrating ductal carcinoma; SUM159 cells were derived from a primary breast tumor with metaplastic ccarcinoma. RAW264.7 (ATCC, TIB 71) cells, a murine pre-osteoclastic line capable of differentiation and mineralization in culture (in presence of RANKL and MCSF), were grown in DMEM with L-glutamine (ATCC, 30-2002) supplemented with 10% FBS. A 2× differentiation medium (DM) was formulated for the RAW 264.7 cells comprising RAW264.7 growth medium supplemented with 20% FBS, RANKL (100 ng/ml) and M-CSF (40 ng/ml) (Matsubara, T., et al. J Bone Miner Res 25, 1068-1076). Conditioned media was harvested from breast cancer cells and mixed in a 1:1 ratio with double strength differentiation medium to assess the effect on osteoclast differentiation. 1×DM was used as control or wherever SHH (R & D Systems, Minneapolis, Minn.) or OPN (R & D Systems) was used alone. The medium on the RAW264.7 cells was replenished every 48 hours. In order to assess the effect of secreted Hh ligands, the neutralizing 5E1 antibody was used (Developmental Studies Hybridoma Bank, at the University of Iowa, Iowa). The amount of 5E1 antibody used for the studies was determined following titration of the antibody with respect to its effects on osteoclast differentiation. Medium was supplemented with 5E1 (2.5 μg/ml) and was changed on alternate days until the end of the experiment. The effect of OPN on osteoclast activity was assessed by transfecting an OPN shRNA-expressing construct on day 6 post-induction of differentiation. Fresh DM was added the following day and cells were allowed to grow for another 12 hours before termination of experiment. GLI1 expression was silenced in the SUM1315 cells using shRNA targeting GLI1 into pSuperior. gfp+neo (Oligoengine, Wash., USA). […]
Osteoclast differentiation and activity assays—Tartarate-resistant acid phosphatase (TRAP) assay was conducted for RAW 264.7 following the manufacturer's protocol (Sigma, St. Louis, Mo.). […] The percentage of area resorbed was calculated using the NIS-Elements BR. […]

| Compound | OPN mRNA levels (OPN [1]; MCC012A, MCC012F, cyclopamine 24 h) | OPN transcript levels (OPN [2]; hFOB / pre-osteoblasts, cyclopamine) | GLI1 subcellular localisation (OPN [2]; hFOB, cyclopamine 20 μM, 24 h) | osteoclast differentiation into TRAP-positive, multinucleate osteoclasts (RAW264.7 cells; DM + cyclopamine 20 μM) | ability of MDA-MB-435 conditioned medium to induce osteoclast differentiation (RAW264.7 cells; tumor cells treated with cyclopamine) | rescue of OPN transcript levels from cyclopamine inhibition (OPN [1]; cyclopamine 20 μM, recombinant SHH 100 nM) | OPN promoter activity (OPN [2]; hFOB and MC3T3) | numbers of TRAP stained multinucleate cells (RAW264.7 cells; DM supplemented with SHH (100 nM) or OPN (100 ng/ml) vs DM alone) |
| --- | --- | --- | --- | --- | --- | --- | --- | --- |
| CC1=C2C[C@H]3[C@@H](CC=C4C[C@@H](O)CC[C@@]43C)[C@@H]2CC[C@]12O[C@@H]1C[C@H](C)CN[C@H]1[C@H]2C [cyclopamine] | decreases the levels of OPN mRNA | decreases OPN mRNA levels; also recorded: inhibited the transcription of OPN; also recorded: reduction in the levels of OPN transcript levels | keeps GLI1 sequestered in the cytosolic compartment | significantly (p<0.0001) reduced the ability of DM to elicit differentiation | significant reduction in this ability | – | – | – |
| SHH: recombinant Sonic hedgehog ligand (R & D Systems) | – | – | – | – | – | reverse and rescue the inhibitory effects of cyclopamine | stimulated the promoter of OPN; also recorded: upregulation in OPN promoter activity | significant (p<0.005) increase |
